From patent US8178688B2, “Benzamidine derivatives, process for the preparation thereof and pharmaceutical composition comprising the same” (Dong Wha Pharmaceutical Co., Ltd., priority 2004, dated 2012)
Read-outs that look alike come from different tables or passages of the source.

Tests used:
[1] = system: osteoclast differentiation; assay: Inhibitory effects on osteoclast differentiation (co-culture of bone marrow cells with osteoblast, TRAP staining); format: cell-based, mice; details: Mus musculus, Osteoclast, 168 h, read-out: % inhibitory activity on osteoclastogenesis
Procedure, shortened: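 Percent inhibition versus control is based on microscope counts of TRAP-positive osteoclasts (3 or more nuclei) after 7 days of compound exposure. Cultures paired ddY mouse marrow cells with ICR calvarial osteoblasts, driven by dexamethasone 10^−7M plus vitamin D3 10^−8M, with medium and compound changed every 2–3 days.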

cells = assay: Cytotoxicity test (MTT); format: cell-based; details: 10^−6M, 72 hrs, compared with the control group
Procedure, shortened: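 Benzamidine derivatives were checked for cytotoxicity with an MTT assay. Test substances were diluted in a suitable solvent to 10^−2M. Cells were seeded at 1×10^4 cell/100 μL per well in 96-well microplates and grown for 72 hrs. During the final 4 hrs, 25 μL of MTT (2 mg/mL in PBS) was added. Plates were then centrifuged, the medium removed, formazan dissolved in 100 μL DMSO, and absorbance read at 540 nm.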

ovariectomized ddY mouse = assay: Therapeutic effect in the ovariectomized osteoporetic mouse model (trabecular bone volume of the femur); format: in vivo, ddY mice; details: Mus musculus, 672 h, 50 mg/kg/day oral gavage for 4 weeks from 4 weeks after ovariectomy, salts (methansulfonic acid or HCl), read-out: Changes on TBV (% changes vs vehicle control)
Protocol: The therapeutic effects of each benzamidine derivates were evaluated on the ovariectomized ddY mouse. Benzamidine derivates were dosed from 4 weeks after operation for 4 weeks and the changes on the trabecular bone volume (TBV) of the femur were observed via histomorphometry.
Female ddY mice (6-wk old upon receipt, SLC, Japan) were used after acclimatization for 7 days. Animals were allocated 5 per polycarbonate cage in a temperature (20-25° C.) and humidity (30-35%) controlled room. Light:dark cycle was 12 hr:12 hr and feed (Samyang, Korea) and water were supplied free to access.
Salts of benzamidine derivates (Methansulfonic acid or HCl) were used for the test substances of this invention. Test substances are dissolved and/or suspended in injectable distilled water and administered at a dosage volume of 10 ml/kg by oral gavage. All test substances are dosed from 4 weeks after operation for 4 weeks at 50 mg/kg/day.
To induce estrogen-deficient osteoporosis, bilateral ovaries are removed and then closed by routine methods. Operation was conduct under Ketamine hydrochloride and xylazine hydrochloride anesthesia.
The left femur of each mouse were separated at sacrifice, and fixed in 10% neutral buffered formalin (NBF), then decalcified in decalcifying solution (24.4% formic acid, and 0.5N sodium hydroxide) for 5 days (mixed decalcifying solution was exchanges once a day for 5 days). After the dexalcification, the femur was embedded in paraffin, sectioned (3˜4 μm) and stained with hematoxylin-eosin stain.
TBV was calculated using automated image analysis (analySIS Image Processing; SIS, Germany) under magnification of ×200 in the uniform area of trochlea epiphyseal regions (growth plate regions were excluded) of prepared histological specimens. TBV was calculated as percentage (%) levels.
The changes of TBV compared to that of vehicle control are calculated as following Equation 1 to help the understanding of the efficacy of test substances. Percentage changes=[((TBV of a−TBV of b)/TBV of b)×100] Equation 1

[2] = system: mouse models of ovalbumin-induced asthma; assay: Therapeutic effect in mouse model of asthma induced with ovalbumin (lung weight, total leukocytes in blood and BALF); format: in vivo, C57BL/6 mice; details: for Changes on the lung weight, Absolute: 200 mg/kg oral once a day from sensitization, vehicle control 0.134 ± 0.012, sham 0.110 ± 0.009; for Changes on the lung weight, Relative (%) / Total leukocytes in peripheral blood (×10^3/1 mm^3) / Total leukocytes in BALF (×10^5/1 ml): 200 mg/kg oral once a day; for Changes on the lung weight, Relative (%): % of body weight, vehicle control 0.780 ± 0.103, sham 0.694 ± 0.049; for Total leukocytes in peripheral blood (×10^3/1 mm^3): vehicle control 14.49 ± 0.88, sham 10.27 ± 0.93; for Total leukocytes in BALF (×10^5/1 ml): vehicle control 75.68 ± 4.67, sham 51.75 ± 2.15
Protocol: The benzamidine compounds were assated for therapeutic effect on allergic inflammation in mouse models of ovalbumin-induced asthma. Starting on the day of immunization the benzamidine compounds were dosed for 17 consecutive days. The experimental animals were re-exposed to ovalbumin 14 days after the sensitization and then sacrificed 3 days after the re-exposure. Changes in lung weight, cellular components of peripheral blood and bronchoalveolar lavage fluid, and lung histopathology were observed.
A total of 110 female C57BL/6 mice (7-week-old, SLC, Japan) were adapted to a laboratory environment for 6 days before being used in earnest experiments. While being housed at a densirt of five in a plastic cage, the experimental animals were breed in a breeding room with controlled temperature (20-25° C.) and humidity (30-35%). Under light-dark cycles of 12 hours, mice were allowed to have free access to feedstuff and tap water. While asthma was induced in 100 mice by ovalbumin, 10 mice were used as a non-treated group.
200 mg of benzamidine compounds (Methansulfonic acid or Hydrochloride) were completely dissolved in 5 ml of sterilized distilled water. The benzamidine compound in the solutions was orally administered at doses of 200 mg per kg of body weight once a day from the day of the sensitization with ovalbumin. The control group was administered with equal volumes of sterilized distilled water in the same manner.
A solution of 200 μg of ovalbumin (Grade VI; Sigma, st. Louis, Mo., USA) and 180 mg of aluminium hydroxide (Al(OH)3, dried powder gel; Aldrich, Milwaukee, USA) in 4 ml of physiological saline was allowed to stand at 4° C. overnight and was administered to the experimental animals (200 μl, abdominal injection) for sensitization. As for the non-treated group, a solution of only aluminium hydroxide in saline was injected. 15 days after sensitization, a 1.5% ovalbumin solution was sprayed in air using a nebulizer, followed by exposing the experimental animals to the spray for 10 min to induce asthma therein. The non-treated group was exposed only to saline in the same manner. All the experimental animals were sacrificed 3 days after the exposure.
On the final day of experiment, the lungs were separated form adjacent organs. The removed lungs were weight among individual animals, the relative weight of the lungs was calculated as a percentage of body weight using the following Equation 3. Relative weight of Lung(%)=(Absolute lung weight/Body weight)×100 Equation 3
On the final day of experiment, all the experimental animals were etherized and underwent laparotomy to expose the abdominal vena cava, from which 1 ml of blood was the taken. Using a hemocytometer, a blood sample was measured for total leukocyte counts in a ×10^3/1 mm^3 units.
On the final day of experiment, secretions present in bronchi and alveola were examined for cyrological constitution. After veing etherized, the experimental animals were operated to open the cervical region and the thorax. The jugular vein was allowed to bleed, followed by endotracheal intubation. 3 ml of phosphate buffered saline was injected twice through the tube and the thorax was massaged for 30 sec to obtain cell suspension from the lungs. Using a hemocytometer, a […] was measured for total leukocyte counts in a ×10^5/1 ml units.

[3] = 1 μm, co-culture of bone marrow cells and osteoblast, 7 days, TRAP-positive osteoclasts versus controls
[4] = 1 m, co-culture of bone marrow cells and osteoblast, 7 days, TRAP-positive osteoclasts versus controls

Cc1nc(-c2ccc(OCCCCCOc3ccc(C(=N)NO)cc3)cc2)cs1 [Example 3, N-hydroxy-4-(5-[4-(2-methyl-1,3-thiazol-4-yl)phenoxy]pentoxy)-benzamidine]
inhibition at 1 µM [1, 3]: 41.4% | melting point: 139 to 140 °C

CC(C)c1nc(-c2ccc(OCCCCCOc3ccc(C(=N)NO)cc3)cc2)cs1 [Example 5, N-hydroxy-4-(5-[4-(2-isopropyl-1,3-thiazol-4-yl)phenoxy]pentoxy)-benzamidine]
inhibition at 1 µM [1, 3]: 87.5% | melting point: 95 to 129 °C

N=C(NO)c1ccc(OCCCCCOc2ccc(-c3csc(-c4ccccc4)n3)cc2)cc1 [Example 6, N-hydroxy-4-(5-[4-(2-phenyl-1,3-thiazol-4-yl)phenoxy]pentoxy)-benzamidine]
melting point: 133 to 141 °C

Cc1nc(-c2ccc(OCCCCCOc3ccc(C(=N)NO)cc3)cc2)c(C)s1 [Example 10, N-hydroxy-4-(5-[4-(2,5-dimethyl-1,3-thiazol-4-yl)phenoxy]pentoxy)-benzamidine]
inhibition at 1 µM [1, 3]: 1.8% | melting point: 128 to 133 °C

CCc1nc(-c2ccc(OCCCCCOc3ccc(C(=N)NO)cc3)cc2)c(C)s1 [Example 11, N-hydroxy-4-(5-[4-(2-ethyl-5-methyl-1,3-thiazol-4-yl)phenoxy]pentoxy)-benzamidine]
inhibition at 1 µM [1, 3]: 53.2% | Survival rates of the cells (cells; MC3T3-E1 cells): 87.2% | Survival rates of the cells (cells; ST2 cells): 33.1% | melting point: 127 to 131 °C

Cc1sc(-c2ccccc2)nc1-c1ccc(OCCCCCOc2ccc(C(=N)NO)cc2)cc1 [Example 12, N-hydroxy-4-(5-[4-(5-methyl-2-phenyl-1,3-thiazol-4-yl)phenoxy]pentoxy)-benzamidine]
melting point: 124 to 130 °C

CCCCCc1nc(-c2ccc(OCCCCCOc3ccc(C(=N)NO)cc3)cc2)c(C)s1 [Example 15, N-hydroxy-4-(5-[4-(5-methyl-2-pentyl-1,3-thiazol-4-yl)phenoxy]pentoxy)-benzamidine]
inhibition at 1 µM [1]: 68.3% | Survival rates of the cells (cells; MC3T3-E1 cells): 81.8% | Survival rates of the cells (cells; ST2 cells): 42.3% | melting point: 81 to 89 °C

CCc1nc(-c2ccc(OCCCCCOc3ccc(C(=N)NO)cc3)cc2)c(CC)s1 [Example 18, N-hydroxy-4-(5-[4-(2,5-diethyl-1,3-thiazol-4-yl)phenoxy]pentoxy)-benzamidine]
inhibition at 1 µM [1, 3]: 24.8% | melting point: 121 to 127 °C

CCc1sc(-c2ccccc2)nc1-c1ccc(OCCCCCOc2ccc(C(=N)NO)cc2)cc1 [Example 20, N-hydroxy-4-(5-[4-(5-ethyl-2-phenyl-1,3-thiazol-4-yl)phenoxy]pentoxy)-benzamidine]
inhibition at 1 µM [1, 3]: 35.6% | melting point: 83 to 86 °C

CCCCc1sc(C)nc1-c1ccc(OCCCCCOc2ccc(C(=N)NO)cc2)cc1 [Example 30, N-hydroxy-4-(5-[4-(5-butyl-2-methyl-1,3-thiazol-4-yl)phenoxy]pentoxy)-benzamidine]
inhibition at 1 µM [1, 3]: 47.7% | melting point: 138 to 140 °C

CCCCc1sc(CC)nc1-c1ccc(OCCCCCOc2ccc(C(=N)NO)cc2)cc1 [Example 31, N-hydroxy-4-(5-[4-(5-butyl-2-ethyl-1,3-thiazol-4-yl)phenoxy]pentoxy)-benzamidine]
inhibition at 1 µM [1, 3]: 35.6% | melting point: 80 to 84 °C

CCCCc1sc(-c2cccnc2)nc1-c1ccc(OCCCCCOc2ccc(C(=N)NO)cc2)cc1 [Example 34, N-hydroxy-4-(5-[4-(5-butyl-2-pyridin-3-yl-1,3-thiazol-4-yl)phenoxy]pentoxy)-benzamidine]
inhibition at 1 µM [1, 3]: 28.7% | melting point: 107 to 118 °C

CC(C)c1nc(-c2ccc(OCCCCCOc3ccc(C(=N)NO)cc3)cc2)c(Cc2ccccc2)s1 [Example 39, N-hydroxy-4-(5-[4-(5-benzyl-2-isopropyl-1,3-thiazol-4-yl)phenoxy]pentoxy)-benzamidine]
inhibition at 1 µM [1, 3]: 37.5% | melting point: 108 to 120 °C

N=C(NO)c1ccc(OCCCCCOc2ccc(-c3nc(-c4cccnc4)sc3Cc3ccccc3)cc2)cc1 [Example 41, N-hydroxy-4-(5-[4-(5-benzyl-2-pyridin-3-yl-1,3-thiazol-4-yl)phenoxy]pentoxy)-benzamidine]
inhibition at 1 µM [1, 3]: 64% | Survival rates of the cells (cells; MC3T3-E1 cells): 84.6% | Survival rates of the cells (cells; ST2 cells): 48.7% | melting point: 134 to 143 °C

CC(C)c1sc(N2CCOCC2)nc1-c1ccc(OCCCCCOc2ccc(C(=N)NO)cc2)cc1 [Example 169, N-hydroxy-4-(5-[4-(5-isopropyl-2-morpholino-1,3-thiazol-4-yl)phenoxy]pentoxy)-benzamidine]
inhibition at 1 µM [1, 4]: 83.3% | change in vivo at 50 mg/kg (ovariectomized ddY mouse): 186% | Changes on the lung weight, Absolute [2]: 0.113 ± 0.003 g | Changes on the lung weight, Relative (%) [2]: 0.696 ± 0.032 % | Total leukocytes in peripheral blood (×10^3/1 mm^3) [2]: 13.20 ± 2.22 ×10^3/1 mm^3 | Total leukocytes in BALF (×10^5/1 ml) [2]: 72.25 ± 7.95 ×10^5/1 ml

Cc1nc(-c2ccc(OCc3ccc(COc4ccc(C(=N)NO)cc4)cc3)cc2)c(C(C)C)s1 [Example 185, N-hydroxy-4-(4-[4-(5-isopropyl-2-methyl-1,3-thiazol-4-yl)-phenoxymethyl]-benzyloxy)-benzamidine]
inhibition at 1 µM [1, 4]: 89.4% | change in vivo at 50 mg/kg (ovariectomized ddY mouse): 152% | Changes on the lung weight, Absolute [2]: 0.116 ± 0.003 g | Changes on the lung weight, Relative (%) [2]: 0.720 ± 0.061% | Total leukocytes in peripheral blood (×10^3/1 mm^3) [2]: 11.90 ± 1.45 # ×10^3/1 mm^3 | Total leukocytes in BALF (×10^5/1 ml) [2]: 66.47 ± 7.41 # ×10^5/1 ml

Cc1nc(-c2ccc(OCCCCCOc3ccc(C(=N)NO)c(O)c3)cc2)c(C(C)C)s1 [Example 188, 2,N-dihydroxy-4-(5-[4-(5-isopropyl-2-methyl-1,3-thiazol-4-yl)-phenoxy]-pentoxy)-benzamidine]
inhibition at 1 µM [1, 4]: 82.6% | change in vivo at 50 mg/kg (ovariectomized ddY mouse): 92%
